Reference: PubChem BioAssay (NCI)
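Cells were grown in 96-well plates and exposed to each compound for 48 hours at five concentrations; endpoints were interpolated linearly between bracketing concentrations, or set to the highest concentration if not reached. GI50 = concentration required for 50% inhibition of growth. TGI denotes the concentration required for complete inhibition of growth.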

Key:
Test in all cases: growth of human tumour cells (NCI), 48 h
[1] = system: HCC-2998 colon
[2] = system: SF-268 CNS
[3] = system: SK-MEL-28 melanoma
[4] = system: U251 CNS
[5] = system: LOX IMVI melanoma
[6] = system: HOP-62 NSCLC
[7] = system: NCI-H460 lung
[8] = system: CCRF-CEM leukemia
[9] = system: SN12C renal
[10] = system: OVCAR-8 ovarian

| Compound | TGI [1] [µM] | TGI [2] [µM] | TGI [3] [µM] | TGI [4] [µM] | TGI [5] [µM] | TGI [6] [µM] | TGI [7] [µM] | TGI [8] [µM] | TGI [9] [µM] | TGI [10] [µM] | GI50 [1] [nM] | GI50 [2] [µM] | GI50 [3] [µM] | GI50 [4] [nM] | GI50 [5] [nM] | GI50 [6] [nM] | GI50 [7] [nM] | GI50 [8] [nM] | GI50 [9] [µM] | GI50 [10] [µM] |
| --- | --- | --- | --- | --- | --- | --- | --- | --- | --- | --- | --- | --- | --- | --- | --- | --- | --- | --- | --- | --- |
| NC(N)=NS(=O)(=O)c1ccc(Nc2c3ccccc3nc3c(C(=O)N4CCN(CCO)CC4)cccc23)cc1 | > 100 | > 100 | > 100 | > 100 | > 100 | > 100 | > 100 | > 100 | > 100 | > 100 |  |  |  |  |  |  |  |  |  |  |
| Cc1oc2nc[nH]c(=O)c2c1C(=O)/C=C/c1ccc(Cl)cc1 | 3.65 | 16.8 | 8.77 | 5.01 | 3.32 | 12.6 | 7.03 | 6.94 | 14.2 | 31.9 | 1790 | 3.17 | 2.51 | 1970 | 1600 | 2830 | 2560 | 1810 | 2.79 | 2.67 |
| NC(=O)c1cc(-c2ccncc2)cc(-c2ccccc2)c1N | > 25 | > 25 | > 25 | > 25 | > 25 | > 25 | > 25 | > 25 | > 25 | > 25 | > 25000 | > 25 | > 25 | > 25000 | > 22700 | > 25000 | 22600 | > 25000 | 12.9 | 15.1 |
| CCCCN(CCCC)c1ccc(C(=N)c2ccc(N(C)C)cc2)cc1 | 1.62 | 2.73 | 2.6 | 1.42 | 2.02 | 2.69 | 2.32 | 3.24 | 2.77 | 1.78 | 429 | 1.3 | 1.31 | 460 | 536 | 1330 | 788 | 544 | 1.19 | 0.591 |
| O=C(Cc1nc2ccccc2c(=O)n1-c1c(Cl)cccc1Cl)c1ccncc1 | 44.2 | > 100 | 43.6 | > 100 | > 10 | 47.9 | 52.2 | 45.2 | > 100 | > 100 |  |  |  |  |  |  |  |  |  |  |
| COc1cc(N2CCN(C(C)C)CC2)ccc1Nc1nc(Nc2cccc3ncccc23)c2cc[nH]c2n1 | 9.77 | 15.4 | 9.56 | 15.1 | 6.95 | > 14.9 | > 23.5 | > 22.4 | > 25 | > 22.7 | 3170 | 5.21 | 4.77 | 4540 | 3300 | 3180 | 6160 | 6360 | 15.7 | 5.86 |
| O=C1c2ccccc2C(=O)C2C1C1C(=O)c3ccccc3C(=O)C21 (stereo not given) | > 100 | > 100 | > 100 | > 100 | > 100 | > 100 | > 100 | > 100 | > 100 | > 100 |  |  |  |  |  |  |  |  |  |  |
| Cc1c(C(=O)CC(=O)C(=O)Nc2c(C(C)C)cccc2C(C)C)[n+](=O)c2ccccc2n1[O-] | 16.6 | 25.2 | 48.3 | 10.7 | 12.9 | 59.3 | 7.02 | 7.84 | 12.2 | 7.38 |  |  |  |  |  |  |  |  |  |  |
| Cc1cc(Cc2cc(C)c(O)c(C)c2)cc(C)c1O | 82.1 | 86.2 | 66.5 | 19.6 | 33.3 | 89.6 | 11.8 | > 100 | > 100 | > 100 | 16300 | 7.85 | 11.4 | 3680 | 6640 | 7010 | 3330 | 4140 | 5.12 | 7.59 |
| C=CCn1c(=O)c2cnc(Nc3ccc(N4CCN(C)CC4)cc3)nc2n1-c1ccc2c(n1)[C@@](O)(CC)CC2 | 3.82 | > 63.5 | 21.6 | 35.7 | 9.89 | 13.8 | 16.7 | 1.81 | > 55.7 | 5.62 | 593 | 2.07 | 3.68 | 1110 | 1020 | 1290 | 1940 | 200 | 0.507 | 0.573 |
